Experimental data reported in patent EP0514133A1, “Benzodiazepine derivatives, compositions containing them and their use in therapy” (priority 1991, dated 1992).
Like-named read-outs stand apart in the source and are kept apart here.

What was measured:
[1] = biological target: T1, CCK receptor (brain, cortex) (Cavia porcellus, UniProt H0VZC5); assay: biochemical; format: binding, guinea pig
T1 construct: the cortex was removed and homogenized in 25 mL ice-cold 0.32 M sucrose; from tissue; host or cells: guinea pig brain cortex P2 membrane pellet
T1 sequence (H0VZC5 1-426): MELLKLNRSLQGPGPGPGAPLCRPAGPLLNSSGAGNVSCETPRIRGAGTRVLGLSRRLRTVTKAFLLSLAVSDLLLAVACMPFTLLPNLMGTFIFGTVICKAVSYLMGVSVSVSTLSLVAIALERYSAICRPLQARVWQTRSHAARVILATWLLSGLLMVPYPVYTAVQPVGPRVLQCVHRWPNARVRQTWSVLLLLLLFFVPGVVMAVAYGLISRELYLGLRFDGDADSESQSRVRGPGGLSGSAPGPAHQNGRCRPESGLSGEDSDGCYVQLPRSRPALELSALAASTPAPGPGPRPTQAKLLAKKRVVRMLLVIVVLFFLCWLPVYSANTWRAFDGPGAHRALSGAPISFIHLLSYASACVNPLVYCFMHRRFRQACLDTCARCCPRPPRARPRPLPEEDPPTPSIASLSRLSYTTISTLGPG
Method: CCK-8 sulphated was radiolabelled and the binding was performed according to the description for the pancreas method with minor modifications.
Male Hartley guinea pigs (300-500g) were sacrificed by decapitation and the cortex was removed and homogenized in 25 mL ice-cold 0.32 M sucrose. The homogenates were centrifuged at 1000 g for 10 minutes and the resulting supernatant was recentrifuged at 20,000 g for 20 minutes. The P₂ pellet was resuspended in binding assay buffer (20mM HEPES, 5 mM MgCl₂, 0.25 mg/ml bacitracin, 1 mM EGTA pH 6.5 at 25°C), using a Teflon (trademark) homogenizer (5 strokes at 500 rpm) to give a final concentration of 10 mg original wet weight/1.2 ml buffer. […] All assays were run in duplicate. The reaction mixtures were incubated at 25°C for 2 hours and then the reaction was terminated by rapid filtration (Brandell 24 well cell harvester) on Whatman GF/C filters with 3 x 5 ml washes of cold 100 mM NaCl. The radioactivity on the filters was counted with a LKB gamma counter.
(§1) Drug displacement studies were performed with at least 10 concentrations of compounds of Formula I and the IC₅₀ values were determined by regression analysis IC₅₀ refers to the concentration of the compound required to inhibit 50% of specific binding of ¹²⁵I-CCK-8.

[2] = biological target: T2, Gastrin Receptor (Cavia porcellus, UniProt H0VZC5); assay: Gastrin Receptor Binding in Guinea Pig Gastric Glands, 125I-gastrin; set-up: from tissue; host or cells: isolated guinea pig gastric mucosal glands; conditions: 0.1 nM 125I-gastrin, 25°C 30 minutes
T2 sequence (H0VZC5 1-426): T1 sequence (H0VZC5 1-426)
Method: Gastrin antagonist activity of compounds of Formula I was determined using the following assay.
Guinea pig gastric mucosal glands were prepared by the procedure of Chang et. al., Science, 230, 177-179 (1985) with slight modifications. […] The tissues were passed twice through a 5 ml syringe to liberate the gastric glands, and then filtered through Nitex (trademark) #202 gauge nylon mesh. The filtered glands were centrifuged at 272 g for 5 minutes and washed twice by resuspension in 25 ml buffer and centrifugation.
The washed guinea pig gastric glands prepared as above were resuspended in 25 ml of standard buffer. For binding studies, to 250 µl of gastric glands, 30 µl of buffer (for total binding) or gastrin (3 µM final concentration, for nonspecific binding) or test compound and 20 µl of ¹²⁵I-gastrin (NEN, 2200 Ci/mmole, 0.1 nM final concentration) were added. All assays were run in triplicate. […] The reaction mixtures, after incubation at 25°C for 30 minutes in a shaking water bath were rapidly filtered (Brandell 24 well cell harvester) over Whatman G/F B filters presoaked in assay buffer and immediately washed further with 3 x 4 ml of 100 mM ice cold NaCl. The radioactivity on the filters was measured using a LKB gamma counter.

[3] = biological target: T3, CCK receptor (pancreas) (Rattus norvegicus, UniProt P30551); assay: biochemical; format: binding; conditions: rat pancreas membranes, 50 pM 125I-CCK-8, 25°C 2 hours
T3 construct: The whole pancreas was dissected free of fat tissue and was homogenized; from tissue; host or cells: rat pancreas membrane homogenate
T3 sequence (P30551 1-444): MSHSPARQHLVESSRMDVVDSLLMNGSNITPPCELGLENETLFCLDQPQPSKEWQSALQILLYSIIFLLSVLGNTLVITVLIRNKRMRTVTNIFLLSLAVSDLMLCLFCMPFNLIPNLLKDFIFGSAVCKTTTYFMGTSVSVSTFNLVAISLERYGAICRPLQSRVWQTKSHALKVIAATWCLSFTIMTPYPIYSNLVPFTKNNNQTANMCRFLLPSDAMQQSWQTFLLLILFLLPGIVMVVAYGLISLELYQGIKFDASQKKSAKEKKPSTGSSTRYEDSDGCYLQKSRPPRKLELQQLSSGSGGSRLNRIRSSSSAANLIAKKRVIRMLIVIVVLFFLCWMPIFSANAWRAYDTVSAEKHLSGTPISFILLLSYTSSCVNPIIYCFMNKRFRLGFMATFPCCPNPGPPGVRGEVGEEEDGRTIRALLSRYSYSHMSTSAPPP
Method: CCK-8 sulphated was radiolabelled with ¹²⁵I-Bolton Hunter reagent (2000 Ci/mmole). Receptor binding was performed according to Chang and Lotti (Proc. Natl. Acad. Sci. 83, 4923-4926, 1986) with minor modifications.
Male Sprague-Dawley rats (150-200g) were sacrificed by decapitation. The whole pancreas was dissected free of fat tissue and was homogenized in 25 volumes of ice-cold 10 mM N-2-hydroxyethyl-piperazine-N′-2-ethane sulphonic acid (HEPES) buffer with 0.1% soya bean trypsin inhibitor (pH 7.4 at 25°C) with a Kinematica Polytron. The homogenates were centrifuged at 47,800 g for 10 min. Pellets were resuspended in 10 volumes of binding assay buffer (20mM (HEPES)), 1mM ethylene glycol-bis-(β-aminoethylether-N,N′-tetraacetic acid) (EGTA), 5mM MgCl₂, 150 mM NaCl, bacitracin 0.25 mg/ml, soya bean trypsin inhibitor 0.1 mg/ml, and bovine serum albumin 2 mg/ml pH 6.5 at 25°C) using a Teflon (trademark) homogenizer, 15 strokes at 500 rpm. The homogenate was further diluted in binding assay buffer to give a final concentration of 0.5 mg original wet weight/1 ml buffer. […] All assays were run in duplicate. The reaction mixtures were incubated at 25°C for 2 hours and the reaction terminated by rapid filtration (Brandell 24 well cell harvester) over Whatman GF/C filters, washing 3 x 4 mls with ice-cold 100 Mm NaCl. The radioactivity on the filters was counted with a LKB gamma counter.
as §1

[4] = guinea pig cortex membranes, 50 pM 125I-CCK-8, 25°C 2 hours, read-out: IC50 ^125I-CCK Brain

Structure (SMILES) | IC50 [1, 4] [nM] | IC50 [2] [nM] | IC50 [3] [nM] | IC50 [1] [nM]
Cc1cccc(NC(=O)NC2N=C(C3CCCCC3)c3ccccc3N(C)C2=O)c1 (racemic) [Example 1, N-[3(R,S)-5-Cyclohexyl-2,3-dihydro-1-methyl-2-oxo-1H-1,4-benzodiazepin-3-yl] N′-[3-methylphenyl] urea] | 2.2 | 0.83 | – | –
CN1C(=O)[C@@H](NC(=O)Nc2cccc(C(=O)NS(=O)(=O)c3ccccc3)c2)N=C(C2CCCCC2)c2ccccc21 [Example 35, N-[3(S)-5-Cyclohexyl-2,3-dihydro-1-methyl-2-oxo-1H-1,4-benzodiazepin-3-yl] N′-[3-(phenylsulphonylaminocarbonyl)phenyl] urea] | 50.8 | – | 10.2 | –
CCN1C(=O)C(NC(=O)Nc2cccc(C(=O)NS(C)(=O)=O)c2)N=C(C2CCCC2)c2ccccc21 (racemic) [Example 29, N-(3(R,S)-5-Cyclopentyl-2,3-dihydro-1-ethyl-2-oxo-1H-1,4-benzodiazepin-3-yl] N′-(3-(methylsulphonylaminocarbonyl)phenyl] urea] | 6.3 | – | 22 | –
CCCN1C(=O)C(NC(=O)Nc2cccc(-c3nn[nH]n3)c2)N=C(C2CCCC2)c2ccccc21 (racemic) [Example 6, N-[3(R,S)-5-Cyclopentyl-2,3-dihydro-1-propyl-2-oxo-1H-1,4-benzodiazepin-3-,yl] N′-[3-tetrazol-5-ylphenyl] urea] | 0.96 | – | 1100 | –
CC(C)S(=O)(=O)NC(=O)c1cccc(NC(=O)NC2N=C(C3CCCCC3)c3ccccc3N(C)C2=O)c1 (racemic) [Example 12, N-[3(R,S)-5-Cyclohexyl-2,3-dihydro-1-methyl-2-oxo-1H-1,4-benzodiazepin-3-yl] N′-[3-(isopropylsulphonylaminocarbonyl)phenyl] urea] | – | 3.24 | 12.4 | –
CC(C)C(=O)NS(=O)(=O)c1cccc(NC(=O)NC2N=C(C3CCCCC3)c3ccccc3N(C)C2=O)c1 (racemic) [Example 11, N-[3(R,S)-5-Cyclohexyl-2,3-dihydro-1-methyl-2-oxo-1H-1,4-benzodiazepin-3-yl] N′-(3-(isopropylcarbonylaminosulphonyl)phenyl] urea] | 0.32 | – | 118 | –
CCCN1C(=O)C(NC(=O)Nc2cccc(C(=O)NS(=O)(=O)C(C)(C)C)c2)N=C(C2CCCC2)c2ccccc21 (racemic) [Example 37, N-[3(R,S)-5-Cyclopentyl-2,3-dihydro-1-propyl-2-oxo-1H-1,4-benzodiazepin-3-yl] N′-[3-(1,1-dimethylethylsulphonylaminocarbonyl)phenyl] urea] | 0.19 | – | 960 | –
CC(C)S(=O)(=O)NC(=O)c1cccc(NC(=O)NC2N=C(C3CCCCC3)c3ccccc3N(C)C2=O)c1 (single isomer, unassigned) [24 (Peak A)] | – | 0.7 | 1180 | –
Cc1cccc(NC(=O)NC2N=C(C3CCCCC3)c3ccccc3N(C)C2=O)c1 (single isomer, unassigned) [7 (Peak A)] | 0.47 | 0.92 | – | –
CCCN1C(=O)C(NC(=O)Nc2cccc(C(=O)NS(C)(=O)=O)c2)N=C(C2CCCCC2)c2ccccc21 (racemic) [Example 25, N-[3(R,S)-5-Cyclohexyl-2,3-dihydro-1-propyl-2-oxo-1H-1,4-benzodiazepin-3-yl] N′-(3-(methylsulphonylaminocarbonyl)phenyl]urea] | 1.9 | – | 220 | –
CN1C(=O)C(NC(=O)Nc2cccc(C(=O)O)c2)N=C(C2CCCCC2)c2ccccc21 (racemic) [Example 10, N-[3(R,S)-5-Cyclohexyl-2,3-dihydro-1-methyl-2-oxo-1H-1,4-benzodiazepin-3-yl] N′-[3-carboxyphenyl] urea] | – | – | 3.1 | 1.4
CC(C)CN1C(=O)C(NC(=O)Nc2cccc(C(=O)NS(C)(=O)=O)c2)N=C(C2CCCCC2)c2ccccc21 (racemic) [Example 19, N-(3(R,S)-5-Cyclohexyl-2,3-dihydro-1-(2-methylpropyl)-2-oxo-1H-1,4-benzodiazepin-3-yl] N′-[3-(methylsulphonylaminocarbonyl)phenyl] urea] | 12 | – | 570 | –
CC(C)S(=O)(=O)NC(=O)c1cccc(NC(=O)NC2N=C(C3CCCC3)c3ccccc3N(C)C2=O)c1 (racemic) [Example 38, N-(3(R,S)-5-Cyclopentyl-2,3-dihydro-1-methyl-2-oxo-1H-1,4-benzodiazepin-3-yl] N′-[3-(isopropylsulphonylaminocarbonyl)phenyl] urea] | 6.8 | – | 300 | –
CN1C(=O)C(NC(=O)Nc2cccc(S(=O)(=O)NC(=O)C(C)(C)C)c2)N=C(C2CCCCC2)c2ccccc21 (racemic) [Example 32, N-(3(R,S)-5-Cyclohexyl-2,3-dihydro-1-methyl-2-oxo-1H-1,4-benzodiazepin-3-yl] N′-(3-(1,1-dimethylethylcarbonylaminosulphonyl)phenyl] urea] | 1.3 | – | 610 | –
CN1C(=O)C(NC(=O)Nc2cccc(S(=O)(=O)Nc3nncs3)c2)N=C(C2CCCCC2)c2ccccc21 (racemic) [Example 21, N-[3(R,S)-5-Cyclohexyl-2,3-dihydro-1-methyl-2-oxo-1H-1,4-benzodiazepin-3-yl] N′-[3-(1,3,4-thiadiazol-2-ylaminosulphonyl)phenyl]urea] | 1.2 | – | 9.7 | –
CCN1C(=O)C(NC(=O)Nc2cccc(-c3nn[nH]n3)c2)N=C(C2CCCC2)c2ccccc21 (racemic) [Example 5, N-[3(R,S)-5-Cyclopentyl-2,3-dihydro-1-ethyl-2-oxo-1H-1,4-benzodiazepin-3-yl] N′-[3-tetrazol-5-ylphenyl]urea] | 0.71 | – | 140 | –
